Assay results from patent US20160101148A1, “TREATMENT AND PREVENTION OF BACTERIAL SKIN INFECTIONS USING ORITAVANCIN” (priority 2013, published 2016).
In brackets after ≈: the same amount, converted by molar mass.

Assays:
[1] = SOLO II Phase 3 trial, safety; type: in vivo, human; conditions: for Patients reported to experience at least one adverse event: up to 60 days after treatment
Text: Safety profiles, measured at any point up to 60 days after treatment, were similar across treatment groups in SOLO II.

[2] = test system: S. aureus strains (14 mecC MRSA, 2 mecA MRSA, ATCC 29213 MSSA); assay: Broth microdilution MIC determination; type: cell-based, Staphylococcus aureus; conditions: for MIC90 / MIC: Staphylococcus aureus
Experimental: The S. aureus (SA) strains used in this study were: ATCC 43300 (mecA methicillin-resistant SA [MRSA]); ATCC 33591 (mecA MRSA), ATCC 29213 (methicillin-susceptible SA; quality control strain) and 14 mecC MRSA obtained from the Staten Serum Institute (Copenhagen, Denmark).
Tests with oritavancin included polysorbate-80 (final test concentration of 0.002%) as described (CLSI 2012a; Arhin et al., 2008). Tests with daptomycin included CaCl2 at a concentration of 50 mg/L. MICs were read after 24 h incubation.

[3] = SOLO I Phase 3 trial, safety assessments (safety population); type: in vivo, human; conditions: for Patients who died during the study: all determined unrelated to study drug; for Infusion site reaction AEs / Pruritus AEs: post-hoc analysis; for Incidence of diarrhea / Incidence of headache / Incidence of nausea / Incidence of vomiting: safety population
Text: The study design was consistent with current guidelines from FDA (U.S. Food and Drug Administration. Guidance for Industry Acute Bacterial Skin and Skin Structure Infections: Developing Drugs for Treatment (DRAFT GUIDANCE). Available via Internet at the URL containing: fda.gov/downloads/Drugs/GuidanceComplianceRegulatoryInformation/Guidances/ucm071185.p df) and EMA (European Medicines Agency Committee for Medicinal Products for Human Use. Addendum to the note for guidance on evaluation of medicinal products indicated for treatment of bacterial infections (CHMP/EWP/558/95 REV 2) to address indication-specific clinical data (draft). 2012. Available via Internet at the URL containing: ema.europa.eu/docs/en_GB/document_library/Scientific_guideline/2012/07/WC500129443.pdf) and Foundation for National Institutes of Health guidance was considered for analyses (Talbot G H etl. Clin Infect Dis. 2012. 55(8):1114-1121). The protocol was approved by institutional review boards/ethics committees and all patients provided written informed consent. The study was conducted from January 2011 through October 2012 at 46 study centers in Mexico, Spain, Germany, Romania, Russia, Ukraine, Israel, India, and the United States. […] Aztreonam and metronidazole were permitted for gram-negative and anaerobic cover, respectively.
Safety assessments (Safety Population) included vital signs, electrocardiogram (ECG), clinical chemistry and hematology parameters, reporting of adverse events (AEs) and serious adverse events (SAEs). Treatment-emergent adverse events (TEAEs) were defined as AEs with onset or worsening severity at or after the first dose of study drug through the Safety Follow-up Visit (Day 60+7 days).
For safety assessments, descriptive analyses were performed in the safety population for all safety parameters by treatment group.
The intent-to-treat (ITT) population included all patients randomized into the study. The modified intent-to-treat (mITT) was the primary population for all the efficacy analyses and included all randomized patients who received any study drug. The clinically evaluable (CE) population consisted of all mITT patients who met the inclusion/exclusion criteria, received the full-course of randomized study treatment (for a minimum of 7 days), and had investigator assessment for clinical cure at PTE. The CE population was used to confirm the efficacy analyses. The microbiologically ITT (MicroITT) population consisted of all mITT patients with baseline gram-positive pathogen(s) known to cause ABSSSI and it was used for the secondary efficacy analyses. The microbiologically evaluable (MicroE) population was used to confirm the secondary efficacy analyses and consisted of all patients who were in both the MicroITT and CE populations. The safety population was the primary population for all the safety analyses, and consisted of all patients who were dosed with study drug, irrespective of randomization. Treatment classification was based on the actual treatment received.

[4] = SOLO I and SOLO II combined, safety; type: in vivo, human; conditions: for Treatment emergent adverse events considered by investigators as related to study drug: p=0.002; for Patients reported to experience at least one adverse event: safety population
[5] = test system: MRSA isolates; conditions: MRSA isolates in a surveillance study (Arhin et al., 2009); cited from earlier work
[6] = ATCC 29213 / ATCC 33591 / MRSA / MSSA, ATCC 33591 MRSA (mecA)
[7] = ATCC 29213 / ATCC 43300 / MRSA / MSSA, ATCC 43300 MRSA (mecA)

Q: Which “Treatment emergent adverse events considered by investigators as related to study drug” value [1] does the source give for `CN[C@H](CC(C)C)C(=O)N[C@H]1C(=O)N[C@@H](CC(N)=O)C(=O)N[C@H]2C(=O)N[C@H]3C(=O)N[C@H](C(=O)N[C@H](C(=O)O)c4cc(O)cc(O)c4-c4cc3ccc4O)[C@H](O)c3ccc(c(Cl)c3)Oc3cc2cc(c3O[C@@H]2O[C@H](CO)[C@@H](O)[C@H](O)[C@H]2O[C@H]2C[C@](C)(N)[C@H](O)[C@H](C)O2)Oc2ccc(cc2Cl)[C@H]1O` [Vancomycin, vancomycin] here?
A: 25.5%

Q: And the “Patients reported to experience at least one adverse event” value (“Patients reported to experience” below) [1]?
A: 50.2%

Q: And the MIC90 [2]?
A: 1 µg/mL (≈ 0.69 µM)

Q: And the MIC ([2]; 57147 MRSA (mecC))?
A: 1 µg/mL (≈ 0.69 µM)

Q: And the MIC ([2]; 70611 MRSA (mecC))?
A: 1 µg/mL (≈ 0.69 µM)

Q: And the MIC ([2]; 73348 MRSA (mecC))?
A: 1 µg/mL (≈ 0.69 µM)

Q: And the MIC ([2]; 73415 MRSA (mecC))?
A: 1 µg/mL (≈ 0.69 µM)

Q: And the MIC ([2]; 73617 MRSA (mecC))?
A: 1 µg/mL (≈ 0.69 µM)

Q: And the MIC ([2]; 73829 MRSA (mecC))?
A: 1 µg/mL (≈ 0.69 µM)

Q: And the MIC ([2]; 75814 MRSA (mecC))?
A: 1 µg/mL (≈ 0.69 µM)

Q: And the MIC ([2]; 76918 MRSA (mecC))?
A: 1 µg/mL (≈ 0.69 µM)

Q: What about the MIC ([2]; 77431 MRSA (mecC)) of the same molecule?
A: 1 µg/mL (≈ 0.69 µM)

Q: And the MIC ([2]; 77601 MRSA (mecC))?
A: 1 µg/mL (≈ 0.69 µM)

Q: What about the MIC ([2]; 77950 MRSA (mecC)) of the same molecule?
A: 1 µg/mL (≈ 0.69 µM)

Q: And the MIC ([2]; 77964 MRSA (mecC))?
A: 1 µg/mL (≈ 0.69 µM)

Q: And the MIC ([2]; 78085 MRSA (mecC))?
A: 1 µg/mL (≈ 0.69 µM)

Q: What about the MIC ([2]; 78651 MRSA (mecC)) of the same molecule?
A: 1 µg/mL (≈ 0.69 µM)

Q: And the MIC ([2]; ATCC 29213 (MSSA))?
A: 1 µg/mL (≈ 0.69 µM)

Q: And the MIC [2, 6]?
A: 1 µg/mL (≈ 0.69 µM)

Q: And the MIC [2, 7]?
A: 1 µg/mL (≈ 0.69 µM)

Q: What about the MIC ([2]; all strains tested) of the same molecule?
A: 1 µg/mL (≈ 0.69 µM)

Q: What about the “Cellulitis SAEs considered new events” value [3] of the same molecule?
A: 4

Q: What about the “Discontinuation of study drug due to cellulitis” value [3] of the same molecule?
A: 3 patients

Q: What about the “Discontinuation of study drug due to drug hypersensitivity” value [3] of the same molecule?
A: 2 patients

Q: What about the “Discontinuation of study drug due to hypersensitivity” value [3] of the same molecule?
A: 5 patients

Q: What about the “Discontinuation of study drug due to pruritus” value [3] of the same molecule?
A: 2 patients

Q: What about the “Discontinuation of study drug due to rash” value [3] of the same molecule?
A: 2 patients

Q: And the “Discontinuation of study drug due to sepsis” value [3]?
A: 2 patients

Q: What about the “Discontinuation of study drug due to skin bacterial infection” value [3] of the same molecule?
A: 2 patients

Q: And the “Frequency of SAEs” value [3]?
A: 7.3%

Q: And the “Histamine-like reactions (Red Man syndrome)” value [3]?
A: 2 patients

Q: What about the “Proportion of patients experiencing a TEAE that led to discontinuation of the study drug” value [3] of the same molecule?
A: 5.8%

Q: What about the “Skin and subcutaneous tissue adverse events” value [3] of the same molecule?
A: 19.1%

Q: And the “Patients who died during the study” value [3]?
A: two

Q: And the “Infusion site reaction AEs” value [3]?
A: 7.1%

Q: What about the “Pruritus AEs” value [3] of the same molecule?
A: 9.1%

Q: And the Incidence of diarrhea [3]?
A: 3.5%

Q: And the Incidence of headache [3]?
A: 7.9%

Q: What about the Incidence of nausea [3] of the same molecule?
A: 8.9%

Q: What about the Incidence of vomiting [3] of the same molecule?
A: 3.7%

Q: And the “Patients with adverse events leading to study drug discontinuation” value [4]?
A: 4.2%

Q: What about the “Treatment emergent adverse events considered by investigators as related to study drug” value [4] of the same molecule?
A: 28.4%

Q: And the “Patients reported to experience” value [4]?
A: 56.9%

Q: For `CN[C@H](CC(C)C)C(=O)N[C@H]1C(=O)N[C@@H](CC(N)=O)C(=O)N[C@H]2C(=O)N[C@H]3C(=O)N[C@H](C(=O)N[C@H](C(=O)O)c4cc(O)cc(O)c4-c4cc3ccc4O)[C@H](O[C@H]3C[C@](C)(N)[C@@H](O)[C@H](C)O3)c3ccc(c(Cl)c3)Oc3cc2cc(c3O[C@@H]2O[C@H](CO)[C@@H](O)[C@H](O)[C@H]2O[C@H]2C[C@](C)(NCc3ccc(-c4ccc(Cl)cc4)cc3)[C@@H](O)[C@H](C)O2)Oc2ccc(cc2Cl)[C@H]1O` [Oritavancin, N^DISACC-(4-(4-chlorophenyl)benzyl)A82846B], which “Treatment emergent adverse events considered by investigators as related to study drug” value [1] is on record?
A: 21.7%

Q: And the “Patients reported to experience” value [1]?
A: 50.9%

Q: And the MIC90 [2]?
A: 0.06 µg/mL (≈ 0.0335 µM)

Q: What about the MIC ([2]; 57147 MRSA (mecC)) of the same molecule?
A: 0.03 µg/mL (≈ 0.0167 µM)

Q: What about the MIC ([2]; 70611 MRSA (mecC)) of the same molecule?
A: 0.06 µg/mL (≈ 0.0335 µM)

Q: And the MIC ([2]; 73348 MRSA (mecC))?
A: 0.06 µg/mL (≈ 0.0335 µM)

Q: And the MIC ([2]; 73415 MRSA (mecC))?
A: 0.06 µg/mL (≈ 0.0335 µM)

Q: And the MIC ([2]; 73617 MRSA (mecC))?
A: 0.03 µg/mL (≈ 0.0167 µM)

Q: And the MIC ([2]; 73829 MRSA (mecC))?
A: 0.03 µg/mL (≈ 0.0167 µM)

Q: And the MIC ([2]; 75814 MRSA (mecC))?
A: 0.06 µg/mL (≈ 0.0335 µM)

Q: And the MIC ([2]; 76918 MRSA (mecC))?
A: 0.03 µg/mL (≈ 0.0167 µM)

Q: What about the MIC ([2]; 77431 MRSA (mecC)) of the same molecule?
A: 0.03 µg/mL (≈ 0.0167 µM)

Q: What about the MIC ([2]; 77601 MRSA (mecC)) of the same molecule?
A: 0.03 µg/mL (≈ 0.0167 µM)

Q: And the MIC ([2]; 77950 MRSA (mecC))?
A: 0.03 µg/mL (≈ 0.0167 µM)

Q: And the MIC ([2]; 77964 MRSA (mecC))?
A: 0.06 µg/mL (≈ 0.0335 µM)

Q: What about the MIC ([2]; 78085 MRSA (mecC)) of the same molecule?
A: 0.06 µg/mL (≈ 0.0335 µM)

Q: And the MIC ([2]; 78651 MRSA (mecC))?
A: 0.06 µg/mL (≈ 0.0335 µM)

Q: And the MIC ([2]; ATCC 29213 (MSSA))?
A: 0.06 µg/mL (≈ 0.0335 µM)

Q: And the MIC [2, 6]?
A: 0.06 µg/mL (≈ 0.0335 µM)

Q: And the MIC [2, 7]?
A: 0.06 µg/mL (≈ 0.0335 µM)

Q: And the MIC ([2]; QC and mecA strains)?
A: 0.06 µg/mL (≈ 0.0335 µM)

Q: What about the MIC range ([2]; mecC strains) of the same molecule?
A: 0.03 to 0.06 µg/mL

Q: And the “Cellulitis SAEs considered new events” value [3]?
A: 2

Q: And the “Discontinuation of study drug due to cellulitis” value [3]?
A: 2 patients

Q: What about the “Frequency of SAEs” value [3] of the same molecule?
A: 7.4%

Q: What about the “Histamine-like reactions (Red Man syndrome)” value [3] of the same molecule?
A: No histamine-like reactions occurred

Q: What about the “Proportion of patients experiencing a TEAE that led to discontinuation of the study drug” value [3] of the same molecule?
A: 3.8%

Q: And the “Skin and subcutaneous tissue adverse events” value [3]?
A: 11.6%

Q: What about the “Patients who died during the study” value [3] of the same molecule?
A: one

Q: What about the “Infusion site reaction AEs” value [3] of the same molecule?
A: 4.0%

Q: And the “Pruritus AEs” value [3]?
A: 3.4%

Q: What about the Incidence of diarrhea [3] of the same molecule?
A: 4.9%

Q: And the Incidence of headache [3]?
A: 7.2%

Q: What about the Incidence of nausea [3] of the same molecule?
A: 11.0%

Q: And the Incidence of vomiting [3]?
A: 4.9%

Q: What about the “Overall safety and tolerability” value ([3]; single 1200 mg dose) of the same molecule?
A: safe and well-tolerated

Q: And the MIC90 [5]?
A: 0.12 µg/mL (≈ 0.0669 µM)

Q: What about the “Patients with adverse events leading to study drug discontinuation” value [4] of the same molecule?
A: 3.7%

Q: And the “Treatment emergent adverse events considered by investigators as related to study drug” value [4]?
A: 22.2%

Q: And the “Patients reported to experience” value [4]?
A: 55.3%
